We go through one compound from patent US20220151959A1, “METHOD FOR TREATING ALLERGIC SKIN DISEASE OR PRURITUS CUTANEOUS” (KOREA RESEARCH INSTITUTE OF BIOSCIENCE AND BIOTECHNOLOGY, priority 2019, published 2022).

Some results are limits rather than exact numbers.

One data set deals with interleukin-4 (IL-4). Description: Inflammatory cytokine expression in skin tissue of oxazolone model (qPCR), IL-4. The data set is classed as in vivo, mouse. To be noted: group treated with both colchicine (0.05%) and oxazolone, compared with oxazolone treatment, FIG. 5. Here is the method: (§1) Specifically, 150 μl of 3% 4-ethoxymethylene-2-phenyl-2-oxazolin-5-one (oxazolone) was applied on an abdominal skin of a 6-week-old laboratory animal to induce an immune response, and 20 μl of the same compound diluted to 0.1% was applied on the ear of a laboratory animal 3 times a week (total 6 times) to induce a skin disease. The ear of the laboratory animal was treated with 20 μl of the colchicine according to the present invention at a concentration of 0.05% 3 times a week (total 6 times). A negative control group treated with only ethanol which was a solvent and a positive control group treated with only oxazolone were also reflected in the experiment. The number of mice in each experiment group was maintained at 10 or more and the experiment was repeated 3 times.
(§2) After completing the application experiment of Example 2, a skin tissue was collected from each mouse and crushed with a tissue crusher to extract RNA. The crushed tissue powder was dissolved in a Trizol reagent solution (Sigma) and RNA was extracted using a RNeasy mini kit (Qiagen). The extracted RNA was reverse-transcribed to cDNA using ImProm-II™ Reverse Transcription kit (Promega), and then a cytokine degree present in the skin tissue was measured by a quantitative PCR (qPCR) method using CFX96™ Real-Time PCR Detection System (Bio-Rad). […]
Background: In qPCR the cycle at which signal appears reflects the starting amount.

A short description of data set [1]: Moisture loss, skin barrier index and composite index by transdermal moisture loss meter (Tewameter). In kind it is in vivo, mice. Here is the method:
Colchicine was continuously applied on back and ear skin areas of laboratory mice at concentration of 0.05% (w/w) twice a week for 4 weeks or more, and then a moisture loss and skin barrier and composite indexes were measured by a transdermal moisture loss meter (Tewameter).
The experiment results are shown in FIG. 2, and were compared with an experiment animal group with no colchicine applied.

The subject of another data set is interleukin-13 (IL-13). Nature of the data set: Inflammatory cytokine expression in skin tissue of oxazolone model (qPCR), IL-13. In kind it is in vivo, mouse. As to conditions: group treated with both colchicine (0.05%) and oxazolone, compared with oxazolone treatment, FIG. 5. Here is the method:
as §1, §2

The subject of data set [2] is allergic skin disease model (atopic dermatitis model) mouse derived by oxazolone. Description: Oxazolone-derived allergic skin disease (atopic dermatitis) model mouse: naked-eye observation and Hematoxylin and Eosin staining of ear skin. The data set is classed as in vivo. How it is done:
as §1
In addition, for pathological observation of skin after completing the application, an ear skin tissue of each mouse was collected and stained with Hematoxylin and Eosin, and the results are shown in FIG. 4.

The next data set has as its system filaggrin. Nature of the data set: Filaggrin expression in mouse skin tissue after colchicine application (qPCR). The data set is classed as in vivo, mice. To be noted: 0.04% (w/w) and 0.1% (w/w) applied on back and ear skin twice a week for 4 weeks or more, FIG. 1. How it is done: Specifically, colchicine was continuously applied on back and ear skin areas of laboratory mice at a low concentration of 0.04% (w/w) and at a high concentration of 0.1% (w/w) twice a week for 4 weeks or more. After completing the application experiment, a skin tissue was collected from each mouse and crushed with a tissue crusher to extract RNA. The crushed tissue powder was dissolved in a Trizol reagent solution (Sigma) and RNA was extracted using a RNeasy mini kit (Qiagen). The extracted RNA was reverse-transcribed to cDNA using IMPROM-II™ Reverse Transcription kit (Promega), and then an amount of filaggrin present in the skin tissue was measured by a quantitative PCR (qPCR) method using CFX96™ Real-Time PCR Detection System (Bio-Rad).

The mark [3] stands for this setting: 0.05% (w/w) on back and ear skin twice a week for 4 weeks or more, Tewameter, vs group with no colchicine applied, FIG. 2.
Setting [4] is: 20 μl of 0.05% colchicine on ear, total 6 times, with oxazolone treatment, H&E staining of ear skin, FIG. 4.

As for `COc1cc2c(c(OC)c1OC)-c1ccc(OC)c(=O)cc1[C@@H](NC(C)=O)CC2` [colchicine], the “expression level of IL-4 in skin tissue” value in the data set with interleukin-4 (IL-4) is on record as at most 50%. In data set [1] (setting [3]), the skin barrier index entry is “greatly increased”, the skin composite index result is recorded as “greatly increased” and the skin moisture loss entry is recorded as “decreased”. The “side effect with long-term application” value in data set [1] (skin application to mice for 4 weeks or more) is reported as “without any side effect”. The “expression level of IL-13 in skin tissue” value in the data set on interleukin-13 (IL-13) is on record as at most 50%. In addition, in data set [2] (20 μl of 0.05% colchicine on ear 3 times a week (total 6 times), simultaneously with oxazolone, FIG. 3), the “skin condition observed with the naked eye (ear)” value is given as “very similar to that of a normal group treated with only a solvent”. Moreover, in data set [2] (setting [4]), the epithelial thickness result is on record as “decreased to a degree very similar to the normal case” and the total skin thickness result is recorded as “decreased to a degree very similar to the normal case”. In data set [2] (control group treated with only colchicine, H&E staining of ear skin), the skin abnormal symptom entry is recorded as “not detected”. For the same compound, the “expression amount of filaggrin” value with filaggrin is given as “increased an expression amount of filaggrin concentration-dependently”.
